{"source": "patent US20260272924A1", "about": "“ISOINDOLINE DERIVATIVE, BENZOINDOLE DERIVATIVE AND USE THEREOF” (SHANGHAI HELIOSON PHARMACEUTICAL CO., LTD., priority 2023, published 2026)"}
{"system": "NCI-H929 multiple myeloma cells", "experiment": "Cell Titer-GLO (CTG) assay for proliferation of NCI-H929 cells", "type": "cell-based", "details": "Homo sapiens, 72 hours", "procedure": "1. Experimental objective: To determine inhibitory activities of compounds on NCI-H929 multiple myeloma cells.\nNCI-H929 cells, purchased from Nanjing Cobioer Biotechnology Co., Ltd, were cultured in RPM11640 (Viva; C3010-0500) medium containing 10% fetal bovine serum (Viva, C04002-500) and 1% of penicillin-streptomycin at 37° C. with 5% of C02 and saturated humidity conditions.\nThe cells in logarithmic growth phase were plated at 5000 cells per well of a 96-well plate and after overnight incubation, compounds at 0.00512 nM, 0.0256 nM, 0.128 nM, 0.64 nM, 3.2 nM, 16 nM, 80 nM, and 400 nM were dosed into the plate with each dose in 2 duplicate wells. Cells were incubated at 37° C., 5% CO2 for 72 hours. After the incubation, the plate was placed at room temperature for half an hour, and then 50 μL of Cell Titer-Glo® (Promega, G7573) was added. The plate was placed on a shaker for uniform mixing for 2 minutes and was placed in the dark at room temperature for 10 minutes. The luminance signal was measured using SpectraMax Paradigm (Molecular Devices).\nCell activity inhibition rate (%)=1 00−(RLUcompound−RLUblank)/(RLUcontrol−RLUblank)×100%, where control refers to the 0.1% DMSO treatment group, and blank refers to the culture medium control. IC50 values and maximum inhibition rates of the compounds were calculated using a nonlinear regression function “Dose-Response-Inhibition” in Graphpad Prism 7.0.", "units": {"IC50": "nM"}}
{"smiles": "Cc1ncn(-c2ncc(F)c(N3CCN(C4CN(Cc5ccc(Cc6ccc7c8c(cccc68)C(=O)N7C6CCC(=O)NC6=O)cc5)C4)CC3)n2)n1", "note": "(stereo not drawn) [Example 49, 3-(6-(4-((3-(4-(5-fluoro-2-(3-methyl-1H-1,2,4-triazol-1-yl)pyrimidin-4-yl)piperazin-1-yl)azetidin-1-yl)methyl)benzyl)-2-oxobenzo[cd]indol-1(2H)-yl)piperidin-2,6-dione]", "IC50": 0.003}
{"smiles": "O=C1CCC(N2C(=O)c3cccc4c(Cc5ccc(CN6CCN(c7ccnc(-c8cccnc8)n7)CC6)cc5)ccc2c34)C(=O)N1", "note": "(stereo not drawn) [Example 64, 3-(2-oxo-6-(4-((4-(2-(pyridin-3-yl)pyrimidin-4-yl)piperazin-1-yl)methyl)benzyl)benzo[cd]indol-1(2H)-yl)piperidin-2,6-dione]", "IC50": 0.02}
{"smiles": "O=C1CCC(N2C(=O)c3cccc4c(Cc5ccc(CN6CCN(c7cccc(-c8nnc(C(F)(F)F)s8)n7)CC6)cc5)ccc2c34)C(=O)N1", "note": "(stereo not drawn) [Example 63, 3-(2-oxo-6-(4-((4-(6-(5-(trifluoromethyl)-1,3,4-thiadiazol-2-yl)pyridin-2-yl)piperazin-1-yl)methyl)benzyl)benzo[cd]indol-1(2H)-yl)piperidin-2,6-dione]", "IC50": 0.2}
{"smiles": "O=C1CCC(N2C(=O)c3cccc4c(Cc5ccc(CN6CCN(C7CCN(c8ccnc(-n9cnc(C(F)(F)F)c9)n8)CC7)CC6)cc5)ccc2c34)C(=O)N1", "note": "(stereo not drawn) [Example 40, 3-(2-oxo-6-(4-((4-(1-(2-(4-(trifluoromethyl)-1H-imidazol-1-yl)pyrimidin-4-yl)piperidin-4-yl)piperazin-1-yl)methyl)benzyl)benzo[cd]indol-1(2H)-yl)piperidin-2,6-dione]", "IC50": 0.01}
{"smiles": "Cc1nc(N2CCN(C3CN(Cc4ccc(COc5cccc6c5CN([C@H]5CCC(=O)NC5=O)C6=O)cc4)C3)CC2)cc(-n2cnc(C)n2)n1", "note": "[Example 77, (S)-3-(4-((4-((3-(4-(2-methyl-6-(3-methyl-1H-1,2,4-triazol-1-yl)pyrimidin-4-yl)piperazin-1-yl)azetidin-1-yl)methyl)benzyl)oxy)-1-oxoisoindolin-2-yl)piperidin-2,6-dione]", "IC50": 0.1}
{"smiles": "Cc1nc(N2CCN(C3CN(Cc4ccc(Cc5ccc6c7c(cccc57)C(=O)N6C5CCC(=O)NC5=O)cc4)C3)CC2)cc(-n2cnc(C(F)(F)F)c2)n1", "note": "(stereo not drawn) [Example 54, 3-(6-(4-((3-(4-(2-methyl-6-(4-(trifluoromethyl)-1H-imidazol-1-yl)pyrimidin-4-yl)piperazin-1-yl)azetidin-1-yl)methyl)benzyl)-2-oxobenzo[cd]indol-1(2H)-yl)piperidin-2,6-dione]", "IC50": 0.004}
{"smiles": "O=C1CC[C@H](N2Cc3c(OCc4ccc(CN5CCN([C@H]6CC[C@H](NC(=O)c7cccc(-n8ccnc8)n7)CC6)CC5)cc4)cccc3C2=O)C(=O)N1", "note": "[Example 16, N-((1R,4R)-4-(4-(4-(((2-((S)-2,6-dioxopiperidin-3-yl)-1-oxoisoindolin-4-yl)oxy)methyl)benzyl)piperazin-1-yl)cyclohexyl)-6-(1H-imidazol-1-yl)pyridin-2-carboxamide]", "IC50": 0.05}
{"smiles": "Cc1nnc(-c2cccc(N3CCN(Cc4ccc(Cc5ccc6c7c(cccc57)C(=O)N6[C@@H]5CCC(=O)NC5=O)cc4)CC3)n2)s1", "note": "[Example 36, (R)-3-(6-(4-((4-(6-(5-methyl-1,3,4-thiadiazol-2-yl)pyridin-2-yl)piperazin-1-yl)methyl)benzyl)-2-oxobenzo[cd]indol-1(2H)-yl)piperidin-2,6-dione]", "IC50": 0.02}
{"smiles": "Cc1nc(N2CCN(Cc3ccc(COc4cccc5c4CN([C@H]4CCC(=O)NC4=O)C5=O)cc3)CC2)cc(-n2cnc(C(F)(F)F)c2)n1", "note": "[Example 72, (S)-3-(4-((4-((4-(2-methyl-6-(4-(trifluoromethyl)-1H-imidazol-1-yl)pyrimidin-4-yl)piperazin-1-yl)methyl)benzyl)oxy)-1-oxoisoindolin-2-yl)piperidin-2,6-dione]", "IC50": 0.1}
